This note sets out measurements from US8188135B2, “Compounds as cannabinoid receptor ligands” (priority 2008, dated 2012).

pKi: −log10 of the molar value. Read-outs that look alike come from different tables or passages of the source.

One assay has as its target T1, rat CB2 (Rattus norvegicus, UniProt Q9QZN9).
T1 sequence (Q9QZN9 1-360): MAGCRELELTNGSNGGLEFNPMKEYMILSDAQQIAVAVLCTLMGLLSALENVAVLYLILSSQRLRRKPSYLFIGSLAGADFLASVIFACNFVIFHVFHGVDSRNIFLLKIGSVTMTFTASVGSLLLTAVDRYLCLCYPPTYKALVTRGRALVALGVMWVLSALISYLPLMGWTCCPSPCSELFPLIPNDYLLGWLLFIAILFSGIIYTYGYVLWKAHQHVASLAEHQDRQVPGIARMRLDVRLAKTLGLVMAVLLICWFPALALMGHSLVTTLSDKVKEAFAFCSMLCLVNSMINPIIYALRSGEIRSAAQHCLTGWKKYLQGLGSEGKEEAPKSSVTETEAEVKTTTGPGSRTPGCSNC
Kind of assay: rat CB2 radioligand binding assay ([3H]CP 55,940 competition). Further details: expressed in transfected cells; host or cells: HEK293. To be noted: HEK293 membranes, 0.5 nM [3H]CP 55,940; for Ki: rat CB2 (Ki, nM); for pKi: read-out: rat CB2 (Ki). The procedure: (§1) The CB1 and CB2 radioligand binding assays described herein are utilized to ascertain the affinity of compounds of the present application for binding to CB2 relative to CB1 receptors.
HEK293 cells stably expressing rat CB2 receptors were grown until a confluent monolayer was formed. Briefly, the cells were harvested and homogenized in TE buffer (50 mM Tris-HCl, 1 mM MgCl2, and 1 mM EDTA) using a polytron for 2×10 second bursts in the presence of protease inhibitors, followed by centrifugation at 45,000×g for 20 minutes. The final membrane pellet was re-homogenized in storage buffer (50 mM Tris-HCl, 1 mM MgCl2, and 1 mM EDTA and 10% sucrose) and frozen at −78° C. until used. Saturation binding reactions were initiated by the addition of membrane preparation (protein concentration of 20 μg/well for rat CB2) into wells of a deep well plate containing [^3H]CP 55,940 (120 Ci/mmol, a nonselective CB agonist commercially available from Tocris) in assay buffer (50 mM Tris, 2.5 mM EDTA, 5 mM MgCl2, and 0.5 mg/mL fatty acid free BSA, pH 7.4). After 45 min incubation at 30° C., binding reaction was terminated by the addition of […] of cold assay buffer followed by rapid vacuum filtration through a UniFilter-96 GF/C filter plates (pre-soaked in 1 mg/mL BSA for 2 hours). The bound activity was counted in a TopCount using Microscint-20. Saturation experiments were conducted with twelve concentrations of [^3H]CP 55,940 ranging from 0.01 to 8 nM. Competition experiments were conducted with 0.5 nM [^3H]CP 55,940 and five concentrations of displacing ligands selected from the range of 0.01 nM to 10 μM. The addition of 10 μM unlabeled CP 55,940 (Tocris, Ellisville, Mo.) was used to assess nonspecific binding.

Another assay has as its target T2, human CB2 receptors (Homo sapiens, UniProt P34972).
T2 construct: expressed in transfected cells; host or cells: HEK293
Nature of the assay: human CB2 radioligand binding assay ([3H]CP 55,940 competition). Conditions: HEK293 membranes, 0.5 nM [3H]CP 55,940; for Ki: human CB2 (Ki, nM); for pKi: read-out: human CB2 (Ki). As for the experimental part: as §1
HEK293 cells stably expressing human CB2 receptors were grown until a confluent monolayer was formed. Briefly, the cells were harvested and homogenized in TE buffer (50 mM Tris-HCl, 1 mM MgCl2, and 1 mM EDTA) using a polytron for 2×10 second bursts in the presence of protease inhibitors, followed by centrifugation at 45,000×g for 20 minutes. The final membrane pellet was re-homogenized in storage buffer (50 mM Tris-HCl, 1 mM MgCl2, and 1 mM EDTA and 10% sucrose) and frozen at −78° C. until used. Saturation binding reactions were initiated by the addition of membrane preparation (protein concentration of 5 μg/well for human CB2) into wells of a deep well plate containing [^3H]CP 55,940 (120 Ci/mmol, a nonselective CB agonist commercially available from Tocris) in assay buffer (50 mM Tris, 2.5 mM EDTA, 5 mM MgCl2, and 0.5 mg/mL fatty acid free BSA, pH 7.4). After 90 min incubation at 30° C., binding reaction was terminated by the addition of 300 μL/well of cold assay buffer followed by rapid vacuum filtration through a UniFilter-96 GF/C filter plates (pre-soaked in 1 mg/mL BSA for 2 hours). The bound activity was counted in a TopCount using Microscint-20. Saturation experiments were conducted with twelve concentrations of [^3H]CP 55,940 ranging from 0.01 to 8 nM. Competition experiments were conducted with 0.5 nM [^3H]CP 55,940 and five concentrations (0.01 nM to 10 μM) of displacing ligands. The addition of 10 μM unlabeled CP 55,940 (Tocris, Ellisville, Mo.) was used to assess nonspecific binding.

As a reminder, the Ki is the equilibrium dissociation constant of an inhibitor or competing ligand from its target. A high value points to lower affinity. The term pKi denotes the Ki on a negative log10 scale, so that one unit is a factor of ten.

T2 sequence (P34972 whole entry): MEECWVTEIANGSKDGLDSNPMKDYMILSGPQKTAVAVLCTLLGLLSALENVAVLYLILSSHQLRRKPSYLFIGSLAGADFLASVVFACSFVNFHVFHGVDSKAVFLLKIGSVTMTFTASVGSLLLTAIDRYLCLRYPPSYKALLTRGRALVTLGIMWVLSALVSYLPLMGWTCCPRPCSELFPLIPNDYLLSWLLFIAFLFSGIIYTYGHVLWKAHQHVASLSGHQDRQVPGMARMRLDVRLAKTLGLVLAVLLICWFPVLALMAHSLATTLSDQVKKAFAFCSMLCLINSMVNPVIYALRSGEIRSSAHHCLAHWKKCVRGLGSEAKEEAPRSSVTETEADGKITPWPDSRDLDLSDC

`CC(C)(O)COc1ccc(C(F)(F)F)cc1C(=O)/N=c1\sc(C(C)(C)C)nn1CC1CCO1` (centres unmarked) [Example 96, N-[(2Z)-5-tert-butyl-3-(oxetan-2-ylmethyl)-1,3,4-thiadiazol-2(3H)-ylidene]-2-(2-hydroxy-2-methylpropoxy)-5-(trifluoromethyl)benzamide]: the Ki at rat CB2 is 6.1 nM; on human CB2 receptors, 9.4 nM.
For `Cn1c(C(C)(C)C)c/c(=N\C(=O)c2cc(C(F)(F)F)ccc2OCCN2CCNC2=O)n1C[C@H]1CCCO1` [Example 48, N-{(3E)-5-tert-butyl-1-methyl-2-[(2R)-tetrahydrofuran-2-ylmethyl]-1,2-dihydro-3H-pyrazol-3-ylidene}-2-[2-(2-oxoimidazolidin-1-yl)ethoxy]-5-(trifluoromethyl)benzamide], affinity on rat CB2 was put at a Ki of 53 nM. Further, the negative logarithm of the Ki (pKi) at human CB2 receptors was 6.60.
In the case of `CCCCN1CC(C)(C)S/C1=N\C(=O)c1cc(C(F)(F)F)ccc1OCC(C)(C)O` [Example 94, N-[(2Z)-3-butyl-5,5-dimethyl-1,3-thiazolidin-2-ylidene]-2-(2-hydroxy-2-methylpropoxy)-5-(trifluoromethyl)benzamide], the Ki at rat CB2 stood at 5 nM; at human CB2 receptors, 3.9 nM.
On the same counts, the results for `CC(C)(C)c1nn(CCCC#N)/c(=N/C(=O)c2cc(C(F)(F)F)ccc2OCCCC#N)s1` [Example 85, N-[(2Z)-5-tert-butyl-3-(3-cyanopropyl)-1,3,4-thiadiazol-2(3H)-ylidene]-2-(3-cyanopropoxy)-5-(trifluoromethyl)benzamide] are 2.5 nM and 20 nM.
On to `Cn1c(C(C)(C)C)c/c(=N\C(=O)c2cc(C(F)(F)F)ccc2OCCCCS(C)(=O)=O)n1C[C@H]1CCCO1` [Example 83, N-{(3E)-5-tert-butyl-1-methyl-2-[(2R)-tetrahydrofuran-2-ylmethyl]-1,2-dihydro-3 H-pyrazol-3-ylidene}-2-[4-(methylsulfonyl)butoxy]-5-(trifluoromethyl)benzamide], for which the Ki on rat CB2 was 305 nM; at human CB2 receptors, over 1000 nM.
For the compound `Cn1c(C(C)(C)C)c/c(=N\C(=O)c2cc(C(F)(F)F)ccc2OCC2CCSCC2)n1C[C@H]1CCCO1` [Example 80, N-{(3E)-5-tert-butyl-1-methyl-2-[(2R)-tetrahydrofuran-2-ylmethyl]-1,2-dihydro-3 H-pyrazol-3-ylidene}-2-(tetrahydro-2H-thiopyran-4-ylmethoxy)-5-(trifluoromethyl)benzamide], on rat CB2, the inhibitory constant (Ki) stood at 75 nM. Besides, the pKi at human CB2 receptors was 6.90.
Turning to `CCCCn1/c(=N/C(=O)c2cc(C(F)(F)F)ccc2SCC(C)O)cc(C(C)(C)C)n1C` (centres unmarked) [Example 136, N-[(3E)-2-butyl-5-tert-butyl-1-methyl-1,2-dihydro-3H-pyrazol-3-ylidene]-2-[(2-hydroxypropyl)thio]-5-(trifluoromethyl)benzamide], the figures for the Ki at rat CB2 and on human CB2 receptors were 16 nM and 44 nM, respectively.
In the case of `COC(=O)c1ccc(OCC(C)(C)O)c(C(=O)/N=c2\cc(C(C)(C)C)n(C)n2C[C@H]2CCCO2)c1` [Example 132, methyl 3-[({(3E)-tert-butyl-1-methyl-2-[(2R)-tetrahydrofuran-2-ylmethyl]-1,2-dihydro-3H-pyrazol-3-ylidene}amino)carbonyl]-4-(2-hydroxy-2-methylpropoxy)benzoate], the negative-log Ki (pKi) on rat CB2 is 7.29; on human CB2 receptors it was 6.90.
In the case of `Cn1c(C(C)(C)C)c/c(=N\C(=O)c2cc(C(F)(F)F)ccc2OCC(C)(C)S(C)(=O)=O)n1C[C@H]1CCCO1` [Example 65, N-{(3E)-5-tert-butyl-1-methyl-2-[(2R)-tetrahydrofuran-2-ylmethyl]-1,2-dihydro-3H-pyrazol-3-ylidene}-2-[2-methyl-2-(methylsulfonyl)propoxy]-5-(trifluoromethyl)benzamide], the pKi on rat CB2 and at human CB2 receptors was under 6.00 each time.
In the case of `C[C@H](c1ccccc1)N1C[C@@H](COc2ccc(C(F)(F)F)cc2C(=O)/N=c2\cc(C(C)(C)C)n(C)n2C[C@H]2CCCO2)OC1=O` [Example 44, N-{(3E)-5-tert-butyl-1-methyl-2-[(2R)-tetrahydrofuran-2-ylmethyl]-1,2-dihydro-3H-pyrazol-3-ylidene}-2-({(5 S)-2-oxo-3-[(1R)-1-phenylethyl]-1,3-oxazolidin-5-yl}methoxy)-5-(trifluoromethyl)benzamide], the Ki at rat CB2 is 408 nM; on human CB2 receptors it was over 1000 nM.
As to `CCCCn1nc(C(C)(C)C)s/c1=N\C(=O)c1cc(C(F)(F)F)ccc1OCC(C)(C)O` [Example 84, N-[(2Z)-3-butyl-5-tert-butyl-1,3,4-thiadiazol-2(3H)-ylidene]-2-(2-hydroxy-2-methylpropoxy)-5-(trifluoromethyl)benzamide], the Ki on rat CB2 came out at 1.5 nM; at human CB2 receptors, 1.8 nM.
For `CSC(C)(C)COc1ccc(C(F)(F)F)cc1C(=O)/N=c1\cc(C(C)(C)C)n(C)n1C[C@H]1CCCO1` [Example 64, N-{(3E)-5-tert-butyl-1-methyl-2-[(2R)-tetrahydrofuran-2-ylmethyl]-1,2-dihydro-3H-pyrazol-3-ylidene}-2-[2-methyl-2-(methylthio)propoxy]-5-(trifluoromethyl)benzamide], the values for the pKi at rat CB2 and at human CB2 receptors were 6.94 and 6.48, respectively.
On to `COCCCn1/c(=N/C(=O)c2cc(C(F)(F)F)ccc2OCC(C)(C)O)cc(C(C)(C)C)n1C` [Example 122, N-[(3E)-5-tert-butyl-2-(3-methoxypropyl)-1-methyl-1,2-dihydro-3H-pyrazol-3-ylidene]-2-(2-hydroxy-2-methylpropoxy)-5-(trifluoromethyl)benzamide], for which the Ki on rat CB2 came out at 27 nM; at human CB2 receptors it was 91 nM.
`Cn1c(C(C)(C)C)c/c(=N\C(=O)c2cc(C(F)(F)F)ccc2OC[C@@H]2CCCN2S(C)(=O)=O)n1C[C@H]1CCCO1` [Example 61, N-{(3E)-5-tert-butyl-1-methyl-2-[(2R)-tetrahydrofuran-2-ylmethyl]-1,2-dihydro-3 H-pyrazol-3-ylidene}-2-{[(2S)-1-(methylsulfonyl)pyrrolidin-2-yl]methoxy}-5-(trifluoromethyl)benzamide]: the Ki on rat CB2 was 433 nM; at human CB2 receptors, over 1000 nM.
For `CCCCn1oc(C(C)(C)C)c/c1=N\C(=O)c1cc(C(F)(F)F)ccc1OCC(C)(C)O` [Example 100, N-[(3E)-2-butyl-5-tert-butylisoxazol-3(2H)-ylidene]-2-(2-hydroxy-2-methylpropoxy)-5-(trifluoromethyl)benzamide] the same measures were 1.3 nM and 1.7 nM.
On the same counts, the results for `C=C[C@H](O)COc1ccc(C(F)(F)F)cc1C(=O)/N=c1\cc(C(C)(C)C)n(C)n1C[C@H]1CCCO1` [Example 107, N-{(3E)-5-tert-butyl-1-methyl-2-[(2R)-tetrahydrofuran-2-ylmethyl]-1,2-dihydro-3 H-pyrazol-3-ylidene}-2-{[(2S)-2-hydroxybut-3-enyl]oxy}-5-(trifluoromethyl)benzamide] are 2.9 nM and 2.4 nM.
